Measured values reported in patent US8623429B2, “Stabilized anthocyanin compositions” (Omnica GmbH, priority 2007, dated 2014).
Values belong to the compound of their own block, whether it stands above or below them.

Tests used:
Type in all cases: physicochemical
[1] = Example 6: stability of free anthocyanidins delphinidin and malvidin at 37° C., pH 7.0, with/without GSH (HPLC); conditions: pH 7.0, 37° C.
Experimental: (§1) Sample a) 5 mg delphinine chloride (0.015 mmol) was transferred into a 100 ml flask, dissolved in 1 ml methanol and filled to volume with sodium phosphate buffer (5% [w/w], pH=7.0). The sample was kept with stirring at 37° C. Samples were taken immediately after dissolution, after 15 minutes, 1, 2, and 3 hours of incubation. The samples were acidified with formic acid to pH=1.0 and analyzed by HPLC.
as §1, with “b)” for “a)”, “malvidin” for “delphinine”, “(0.014” for “(0.015”, “dissolution and at” for “dissolution, after 15 minutes,”
(§2) Sample c) 5 mg delphinidine chloride (0.015 mmol) and 10 mg GSH (0.032 mmol) were transferred into a 100 ml flask, dissolved in 1 ml methanol and filled to volume with sodium phosphate buffer (5% [w/w], pH=7.0). The sample was kept with stirring at 37° C. Samples were taken at 15 minutes after dissolution and after 1, 2 and 3 hours of incubation. The samples were acidified with formic acid to pH=1.0 and analyzed by HPLC.
as §2, with “d)” for “c)”, “malvidin” for “delphinidine”, “(0.014” for “(0.015”, “taken” for “taken at”
(§3) Samples were prepared as outlined below in HPLC Analytical Method. Test stability samples were immediately acidified (to block degradation) and injected undiluted following the detailed description provided below.

[2] = Example 1: stability of bilberry extract anthocyanosides, 4 hours at 37° C., pH 7.0, with/without DHLA or GSH (HPLC)
Experimental: (0.048 mmol anthocyanosides expressed as cyanidin-3-O-glucoside) were added to a 100 ml flask and filled to volume with sodium phosphate buffer (5% [w/w], pH=7.0), and stirred until dissolution was complete. A 1 ml sample was taken immediately and acidified with formic acid to pH=1.0 and analyzed by HPLC for the content of anthocyanosides (Fresh Sample). The remaining solution was kept for 4 hours at 37° C. (water bath) with stirring. Thereafter another sample (Blank sample), representing unprotected degradation, was taken and acidified.
(0.048 mmol expressed as cyanidin-3-O-glucoside) were then added and the flask was filled to volume with sodium phosphate buffer (5% [w/w], pH=7.0) and kept for 4 hours at 37° C. (water bath) with stirring.
Quantitation: External standardization based on linear regression analysis. The response factors of all anthocyanosides separated is quantitified against cyanidin-3-O-glucoside.
Test solutions from incubation experiments (with/without cells and with/without stabilizing agents) were used for analysis after stabilization of anthocyanosides with formic acid. Samples were cleared by filtration prior to injection on to HPLC-system.

[3] = Example 2: degradation over time of selected bilberry anthocyanosides at 37° C., pH 7.0, with/without GSH (HPLC); conditions: pH 7.0, 37° C.; for %-residual anthocyanosides (% left): 4.30 hours
Experimental: Sample a) 60 mg bilberry extract [37% anthocyanosides] (0.048 mmol expressed as cyanidin-3-O-glucoside) were added to a 100 ml, filled to volume with sodium phosphate buffer (5% [w/w], pH=7.0) and stirred until dissolution was complete. A 1 ml sample was immediately taken and acidified with formic acid to pH=1.0 and analyzed by HPLC for the content of anthocyanosides. The remaining solution was kept at 37° C. (water bath) with stirring and additional 1 ml samples (Blank Samples), representing unprotected degradation, were sampled every 15 minutes. The samples were analyzed for selected anthocyanosides by HPLC.
(§4) Sample b) 20 mg reduced L-glutathione (0.065 mmol) were added to a 100 ml flask with 60 ml sodium phosphate buffer (5% [w/w], pH=7.0) and stirred until dissolution was complete. 60 mg bilberry extract [37% anthocyanosides] (0.048 mmol expressed as cyanidin-3-O-glucoside) were added and the flask was filled to volume with sodium phosphate buffer (5% [w/w], pH=7.0) and kept at 37° C. (water bath) with stirring. Every 15 minutes, 1 ml samples were taken and analyzed for selected anthocyanosides by HPLC.
as §3
HPLC Analytical Method (Materials, Instruments and Methods): […]

[4] = Example 9: stability of bilberry extract anthocyanosides, 4 hours at 37° C., pH 7.0, with/without L-cysteine
Experimental: Sample a) 60 mg bilberry extract [37% anthocyanosides] (0.048 mmol anthocyanosides expressed as cyanidin-3-O-glucoside) were added to a 100 ml flask with 60 ml sodium phosphate buffer (5% [w/w], pH=7.0), and stirred until dissolution was complete. A 1 ml sample was taken immediately and acidified with formic acid to pH=1.0 and analyzed by HPLC for the content of anthocyanosides (Fresh Sample). The remaining solution was kept for 4 hours at 37° C. (water bath) with stirring. Thereafter another sample (Blank sample), representing unprotected degradation, was taken and acidified.
Sample b) 20 mg L-cysteine […] were added to a 100 ml flask with 60 ml sodium phosphate buffer (5% [w/w], pH=7.0) and stirred until dissolution was complete. 60 mg bilberry extract [37% anthocyanosides] (0.048 mmol expressed as cyanidin-3-O-glucoside) were then added to the flask and stir to fully dissolve, then kept for 4 hours at 37° C. (water bath) with stirring.
After 4 hours, samples were taken and acidified immediately with formic acid to pH=1.0 and analyzed by HPLC for the content of anthocyanosides. Degradation is expressed as decrease in peak area of individual peaks (calculated as % left after 4 hours).
Samples were prepared as outlined above in the HPLC Analytical Method. Test stability samples were immediately acidified (to block degradation) and injected undiluted following the detailed description provided below.

[5] = Example 8: oxidation of GSH to GSSG in buffer pH 7.0 at 37° C. with/without bilberry extract (HPLC); conditions: buffer pH 7.0, 37° C.
Experimental: Sample a) 60 mg GSH (0.192 mmol) were placed into a 100 ml flask, dissolved and filled up to volume with sodium phosphate buffer (5% [w/w], pH=7.0). The sample was kept with stirring at 37° C. Samples were taken immediately after dissolution and after 1, 2, 3 and 4 hours of incubation. The samples were analyzed by HPLC for GSH and GSSG (representing the oxidized form of GSH).
as §4, with “60” for “20”, “(0.192” for “(0.065”, “added,” for “added and”, “Samples were taken immediately after dissolution and after 1, 2, 3 and 4 hours of incubation. The” for “Every 15 minutes, 1 ml”, “analyzed by HPLC for GSH” for “taken”, “GSSG (representing the oxidized form of GSH).” for “analyzed for selected anthocyanosides by HPLC.”
as §3

[6] = 20 mg reduced L-glutathione, pH 7.0, 37° C., 4 hours
[7] = 30 mg dihydrolipoic acid, pH 7.0, 37° C., 4 hours
[8] = unprotected, pH 7.0, 37° C., 4 hours

SMILES: Oc1cc(O)c2cc(O)c(-c3cc(O)c(O)c(O)c3)[o+]c2c1 [Delphinidin]
Peak Area ([1]; Blank, 0 hours): 48.6
Peak Area ([1]; Blank, 0.25 hours): BLD
Peak Area ([1]; Blank, 1 hour): BLD
Peak Area ([1]; Blank, 2 hours): BLD
Peak Area ([1]; Blank, 3 hours): BLD
Peak Area ([1]; GSH 10 mg, 0.25 hours): BLD
Peak Area ([1]; GSH 10 mg, 1 hour): BLD
Peak Area ([1]; GSH 10 mg, 2 hours): BLD
Peak Area ([1]; GSH 10 mg, 3 hours): BLD

% left, GSH (4 hours) [2, 6]: 50.6%
Peak Area, GSH (4 hours) [2, 6]: 331.3
% left, DHLA (4 hours) [2, 7]: 60.5%
Peak Area, DHLA (4 hours) [2, 7]: 395.8
Peak Area, Fresh (0 hours) ([2]; bilberry extract 60 mg/100 ml sodium phosphate buffer pH 7.0, fresh sample): 654.4
% left, Blank (4 hours) [2, 8]: 7.8%
Peak Area, Blank (4 hours) [2, 8]: 50.9
Peak Area ([3]; Blank Sample, 1:15 h): 354.36
Peak Area ([3]; Blank Sample, 4:15 h): 226.99
Peak Area ([3]; Blank Sample, 4:30 h): 135.48
Peak Area ([3]; Blank sample, 0:00 h): 699.51
Peak Area ([3]; Blank sample, 0:15 h): 547.09
Peak Area ([3]; Blank sample, 0:30 h): 603.54
Peak Area ([3]; Blank sample, 0:45 h): 451.09
Peak Area ([3]; Blank sample, 1:00 h): 467.23
Peak Area ([3]; Blank sample, 1:45 h): 401.11
Peak Area ([3]; Blank sample, 2:00 h): 356.25
Peak Area ([3]; Blank sample, 2:15 h): 320.33
Peak Area ([3]; Blank sample, 2:30 h): 262.70
Peak Area ([3]; Blank sample, 2:45 h): 264.07
Peak Area ([3]; Blank sample, 3:00 h): 288.65
Peak Area ([3]; Blank sample, 3:15 h): 289.95
Peak Area ([3]; Blank sample, 3:30 h): 237.41
Peak Area ([3]; Blank sample, 4:00 h): 243.90
%-residual anthocyanosides (% left) ([3]; Blank): 19%
Peak Area ([3]; GSH Protected Sample (20 mg), 0:30 h): 674.83
Peak Area ([3]; GSH Protected Sample (20 mg), 1:30 h): 618.45
Peak Area ([3]; GSH Protected Sample (20 mg), 2:30 h): 528.71
Peak Area ([3]; GSH Protected Sample (20 mg), 3:30 h): 553.82
Peak Area ([3]; GSH Protected Sample (20 mg), 4:30 h): 531.62
Peak Area ([3]; GSH Protected Sample (20 mg), 4:45 h): 478.52
Peak Area ([3]; GSH protected sample (20 mg), 0:00 h): 731.12
Peak Area ([3]; GSH protected sample (20 mg), 0:15 h): 739.50
Peak Area ([3]; GSH protected sample (20 mg), 0:45 h): 598.57
Peak Area ([3]; GSH protected sample (20 mg), 1:00 h): 652.53
Peak Area ([3]; GSH protected sample (20 mg), 1:15 h): 648.70
Peak Area ([3]; GSH protected sample (20 mg), 1:45 h): 609.47
Peak Area ([3]; GSH protected sample (20 mg), 2:00 h): 583.66
Peak Area ([3]; GSH protected sample (20 mg), 2:15 h): 592.13
Peak Area ([3]; GSH protected sample (20 mg), 2:45 h): 560.24
Peak Area ([3]; GSH protected sample (20 mg), 3:00 h): 562.10
Peak Area ([3]; GSH protected sample (20 mg), 3:15 h): 562.39
Peak Area ([3]; GSH protected sample (20 mg), 3:45 h): 495.67
Peak Area ([3]; GSH protected sample (20 mg), 4:00 h): 563.95
Peak Area ([3]; GSH protected sample (20 mg), 4:15 h): 540.10
%-residual anthocyanosides (% left) ([3]; GSH-protected): 65%
%-residual anthocyanosides (% left) ([3]; GSH-protected, listed as delphinidin-3-O-Galactose): 65%
Peak Area, Fresh solution ([4]; bilberry extract 60 mg in buffer pH 7.0, fresh sample): 654.4
% left, L-cysteine 20 mg ([4]; pH 7.0, 37° C., 4 hours): 50.6%
Peak Area, L-cysteine 20 mg ([4]; pH 7.0, 37° C., 4 hours): 331.3
% left, Blank [4, 8]: 7.8%
Peak Area, Blank [4, 8]: 50.9
SMILES: OC[C@H]1O[C@@H](Oc2cc3c(O)cc(O)cc3[o+]c2-c2cc(O)c(O)c(O)c2)[C@H](O)[C@@H](O)[C@H]1O [Dp-3O-Gal, Delphinidin 3-o-galactoside]

Peak Area ([5]; GSH + bilberry Sample, 0 hours): 4760
peak area Ratio % ([5]; GSH + bilberry Sample, 0 hours): 92.3%
Peak Area ([5]; GSH + bilberry Sample, 1 hour): 4071
peak area Ratio % ([5]; GSH + bilberry Sample, 1 hour): 79.0%
Peak Area ([5]; GSH + bilberry Sample, 2 hours): 3378
peak area Ratio % ([5]; GSH + bilberry Sample, 2 hours): 65.5%
Peak Area ([5]; GSH + bilberry Sample, 3 hours): 3045
peak area Ratio % ([5]; GSH + bilberry Sample, 3 hours): 59.1%
Peak Area ([5]; GSH + bilberry Sample, 4 hours): 2461
peak area Ratio % ([5]; GSH + bilberry Sample, 4 hours): 47.7%
Peak Area ([5]; GSH Sample, 0 hours): 4760
peak area Ratio % ([5]; GSH Sample, 0 hours): 92.3%
Peak Area ([5]; GSH Sample, 1 hour): 4744
peak area Ratio % ([5]; GSH Sample, 1 hour): 92.0%
Peak Area ([5]; GSH Sample, 2 hours): 4220
peak area Ratio % ([5]; GSH Sample, 2 hours): 81.9%
Peak Area ([5]; GSH Sample, 3 hours): 4053
peak area Ratio % ([5]; GSH Sample, 3 hours): 78.6%
Peak Area ([5]; GSH Sample, 4 hours): 3777
peak area Ratio % ([5]; GSH Sample, 4 hours): 73.3%
SMILES: N[C@@H](CCC(=O)N[C@@H](CS)C(=O)NCC(=O)O)C(=O)O [GSH, reduced L-glutathione]

SMILES: COc1cc(-c2[o+]c3cc(O)cc(O)c3cc2O)cc(OC)c1O.[Cl-] [Malvidin]
Peak Area ([1]; Blank, 0 hours): 1228
Peak Area ([1]; Blank, 1 hour): 661.6
Peak Area ([1]; Blank, 2 hours): 175.3
Peak Area ([1]; Blank, 3 hours): 56.4
Peak Area ([1]; GSH 10 mg, 1 hour): 530.1
Peak Area ([1]; GSH 10 mg, 2 hours): 263.5
Peak Area ([1]; GSH 10 mg, 3 hours): 5.6
